Test results as given in patent EP0068038A1, “(+)-(4R,6S)-(E)-6-(2-(4'-fluoro-3,3',5-trimethyl-(1,1'-biphenyl)-2-yl)ethenyl)-3,4,5,6-tetrahydro-4-hydroxy-2H-pyran-2-one, a process for preparing and a pharmaceutical composition containing the same” (Merck & Co., Inc., priority 1981, dated 1983).
Where two headings read alike, the source gives them in different places.

What was measured:
[1] = target: T1, 3-hydroxy-3-methylglutaryl-coenzyme A reductase (Rattus norvegicus, UniProt P51639); conditions: from E.P. publication 0 024 348, cited from earlier work
T1 sequence (P51639 1-887): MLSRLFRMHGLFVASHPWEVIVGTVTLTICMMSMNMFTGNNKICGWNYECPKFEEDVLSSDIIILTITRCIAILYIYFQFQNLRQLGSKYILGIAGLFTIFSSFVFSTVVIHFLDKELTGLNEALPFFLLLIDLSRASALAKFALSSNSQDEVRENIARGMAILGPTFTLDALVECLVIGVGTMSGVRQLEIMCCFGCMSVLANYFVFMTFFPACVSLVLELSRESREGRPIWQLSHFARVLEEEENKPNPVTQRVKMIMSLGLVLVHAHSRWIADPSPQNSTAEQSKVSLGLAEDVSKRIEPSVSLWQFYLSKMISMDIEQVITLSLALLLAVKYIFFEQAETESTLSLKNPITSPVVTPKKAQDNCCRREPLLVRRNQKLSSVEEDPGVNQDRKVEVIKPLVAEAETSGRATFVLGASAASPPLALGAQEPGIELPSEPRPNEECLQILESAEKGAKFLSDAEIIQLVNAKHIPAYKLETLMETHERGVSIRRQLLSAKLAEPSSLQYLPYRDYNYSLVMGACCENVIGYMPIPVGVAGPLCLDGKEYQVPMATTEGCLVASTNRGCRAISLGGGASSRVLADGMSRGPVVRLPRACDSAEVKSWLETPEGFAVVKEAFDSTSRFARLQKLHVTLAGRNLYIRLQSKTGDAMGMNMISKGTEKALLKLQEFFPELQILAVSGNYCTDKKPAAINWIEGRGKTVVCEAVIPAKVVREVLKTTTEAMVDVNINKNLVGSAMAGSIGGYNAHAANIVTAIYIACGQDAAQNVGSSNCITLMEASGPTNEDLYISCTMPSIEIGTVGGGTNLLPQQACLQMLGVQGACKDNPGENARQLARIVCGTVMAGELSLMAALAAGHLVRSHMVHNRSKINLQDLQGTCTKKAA

[2] = target: T1, 3-hydroxy-3-methylglutaryl-coenzyme A reductase; assay: Method A: in vitro enzyme inhibition (method of Knauss et al.); format: biochemical

O=C1CC(O)CC(CCc2c(Cl)cc(Cl)cc2OCc2ccccc2)O1 (single isomer, unassigned; (+)) [6-[2-(2,4-dichloro-6-(phenylmethoxy)phenyl)ethyl]-3,4,5,6-tetrahydro-4-hydroxy-2H-pyran-2-one]
IC50 ([1]; method A, tested as the sodium salts of the corresponding dihydroxy acid forms): 68 nM

O=C1C[C@H](O)C[C@@H](/C=C/c2c(Cl)cc(Cl)cc2-c2ccc(F)cc2)O1 [(E)-6-[2-(3,5-dichloro-4'-fluoro[l,l'-biphenyl]-2-yl)ethenyl]-3,4,5,6-tetrahydro-4-hydroxy-2H-pyran-2-one]
inhibitory potency (relative, in words) ([1]; compared with the (+) trans enantiomer of the 2,4-dichloro-6-(phenylmethoxy)phenyl compound, tested as sodium salt of the dihydroxy acid): even more potent

Cc1cc(C)c(/C=C/[C@@H]2C[C@@H](O)CC(=O)O2)c(-c2ccc(F)c(C)c2)c1 [III, (+)-(4R, 6S)-(E)-6-[2-(3,3',5-trimethyl-4'-fluoro-[1,1'-biphenyl]-2-yl)ethenyl]-3,4,5,6-tetrahydro-4-hydroxy-2H-pyran-2-one]
inhibition of cholesterol biosynthesis (in words) ([2]; compared with compactin, test not specified): surpassing the inhibitory activity of compactin | inhibitory potency (relative, in words) ([2]; compared with the (+) trans 3,5-dichloro-4'-fluoro-biphenyl compound, tested as sodium salt of the dihydroxy acid): several times more potent
